Experimental data as given in patent US9833497B2, “Human originated EGF domain proteins and use of the same” (CHENGDU SOURCEBIO LIMITED-LIABILITY COMPANY, priority 2013, dated 2017).

Assays:
Type in all cases: cell-based
Klebsiella pneumonia = assay: MIC against Gram-negative bacteria: Klebsiella pneumonia; settings: for MIC: K. pneumonia; for MIC against K. pneumonia / MIC (μg/mL) K. pneumonia: Klebsiella pneumonia; for MIC K. pneumonia: two-fold serial dilution
Procedure, shortened: (§1)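 MIC, the lowest recombinant protein concentration giving no bacterial growth, found by two-fold serial dilution of human EGF-domain proteins in triplicate. Inoculum 5×10^5 CFU/mL in LB from cultures at McFarland 0.5; plates incubated at 37° C, 175 rpm shaking.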

E. coli BL21 = assay: MIC against Gram-negative bacteria: E. coli BL21; settings: for MIC / MIC against E. coli BL21 / MIC (μg/mL) E. coli BL21: E. coli BL21; for MIC E. coli BL21: two-fold serial dilution
Procedure, shortened: as §1

Moraxella catarrhalis = assay: MIC against Gram-negative bacteria: Moraxella catarrhalis; settings: for MIC: M. catarrhalis; for MIC against M. catarrhalis / MIC (μg/mL) M. catarrhalis: Moraxella catarrhalis; for MIC M. catarrhalis: two-fold serial dilution
Procedure, shortened: as §1

Pseudomonas aeruginosa = assay: MIC against Gram-negative bacteria: Pseudomonas aeruginosa; settings: for MIC: P. aeruginosa; for MIC against P. aeruginosa / MIC (μg/mL) P. aeruginosa: Pseudomonas aeruginosa; for MIC P. aeruginosa: two-fold serial dilution
Procedure, shortened: as §1

Proteus vulgaris = assay: MIC against Gram-negative bacteria: Proteus vulgaris; settings: for MIC: P. vulgaris; for MIC against P. vulgaris / MIC (μg/mL) P. vulgaris: Proteus vulgaris; for MIC P. vulgaris: two-fold serial dilution
Procedure, shortened: as §1

E. coli DH5α = assay: Antibacterial activity: MIC and growth curve against E. coli DH5α in 96-well plate; settings: minimal inhibitory concentration against E. coli DH5α; 96-well plate, 5×10^5 CFU/mL, 37° C., judged after 8 h
Procedure, shortened: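 Log-phase DH5α (OD600 about 0.5, 37° C, 185 rpm in LB) was pelleted, resuspended in fresh LB and seeded at 5×10^5 CFU/mL with recombinant protein at 50, 25 and 12.5 μg/mL (two-fold series), in triplicate. Plates were shaken at 175 rpm, 37° C, and OD600 was read every 30 min. MIC was the lowest concentration with no growth.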

Enterobacter cloacae = assay: MIC against Gram-negative bacteria: Enterobacter cloacae; settings: for MIC: E. cloacae; for MIC against E. cloacae / MIC (μg/mL) E. cloacae: Enterobacter cloacae; for MIC E. cloacae: two-fold serial dilution
Procedure, shortened: as §1

Proteus mirabilis = assay: MIC against Gram-negative bacteria: Proteus mirabilis; settings: for MIC: P. mirabilis; for MIC against P. mirabilis / MIC (μg/mL) P. mirabilis: Proteus mirabilis; for MIC P. mirabilis: two-fold serial dilution
Procedure, shortened: as §1

Aeromonas hydrophila = assay: MIC against Gram-negative bacteria: Aeromonas hydrophila; settings: for MIC: A. hydrophila; for MIC against A. hydrophila / MIC (μg/mL) A. hydrophila: Aeromonas hydrophila; for MIC A. hydrophila: two-fold serial dilution
Procedure, shortened: as §1

Citrobacter diversus = assay: MIC against Gram-negative bacteria: Citrobacter diversus; settings: for MIC: C. diversus; for MIC against C. diversus / MIC (μg/mL) C. diversus: Citrobacter diversus; for MIC C. diversus: two-fold serial dilution
Procedure, shortened: as §1

Serratia marcescens = assay: MIC against Gram-negative bacteria: Serratia marcescens; settings: for MIC: S. marcescens; for MIC against S. marcescens / MIC (μg/mL) S. marcescens: Serratia marcescens; for MIC S. marcescens: two-fold serial dilution
Procedure, shortened: as §1

[1] = 10 h cultivation at 37° C., 5×10^5 CFU/mL
[2] = 5×10^5 CFU/mL, 10 h cultivation at 37° C.
[3] = 96-well plate, 5×10^5 CFU/mL, 37° C., 10 h

PRT403 (DNDECSAQPGPCGAHGHCHNTPGSFRCECHQGFTLVSSGHGCE; listed as Homo sapiens)
25 µg/mL: MIC (Klebsiella pneumonia; [1]) | MIC (E. coli BL21; [1]) | MIC (Moraxella catarrhalis; [1]) | MIC (Proteus vulgaris; [1]) | MIC (Aeromonas hydrophila; [1])
50 µg/mL: MIC (Pseudomonas aeruginosa; [1]) | MIC (Citrobacter diversus; [1]) | MIC (Serratia marcescens; [1])
12.5 µg/mL: MIC (E. coli DH5α) | MIC (Enterobacter cloacae; [1]) | MIC (Proteus mirabilis; [1])

PRT1363 (SEKRCPADCHNRGRCVDGRCECDDGFTGADCG; listed as Homo sapiens)
25 µg/mL: MIC against P. mirabilis (Proteus mirabilis; [2]) | MIC against C. diversus (Citrobacter diversus; [2])
50 µg/mL: MIC against M. catarrhalis (Moraxella catarrhalis; [2]) | MIC against E. cloacae (Enterobacter cloacae; [2]) | MIC against S. marcescens (Serratia marcescens; [2])
12.5 µg/mL: MIC against K. pneumonia (Klebsiella pneumonia; [2]) | MIC against E. coli BL21 (E. coli BL21; [2]) | MIC against P. aeruginosa (Pseudomonas aeruginosa; [2]) | MIC against P. vulgaris (Proteus vulgaris; [2]) | MIC (E. coli DH5α) | MIC against A. hydrophila (Aeromonas hydrophila; [2])

PRT47 (CTCSGHANICHLHTGKCFCTTKGIKGDQCQLCDSENRYVGNPLRGTCYY; listed as Homo sapiens)
25 µg/mL: MIC (μg/mL) E. coli BL21 (E. coli BL21; [3]) | MIC (μg/mL) E. cloacae (Enterobacter cloacae; [3]) | MIC (μg/mL) P. mirabilis (Proteus mirabilis; [3])
12.5 µg/mL: MIC (μg/mL) K. pneumonia (Klebsiella pneumonia; [3]) | MIC (μg/mL) M. catarrhalis (Moraxella catarrhalis; [3]) | MIC (μg/mL) P. aeruginosa (Pseudomonas aeruginosa; [3]) | MIC (E. coli DH5α) | MIC (μg/mL) A. hydrophila (Aeromonas hydrophila; [3]) | MIC (μg/mL) S. marcescens (Serratia marcescens; [3])
50 µg/mL: MIC (μg/mL) P. vulgaris (Proteus vulgaris; [3]) | MIC (μg/mL) C. diversus (Citrobacter diversus; [3])

PRT1301 (DNDDCVAHKCRHGAQCVDTINGYTCTCPQGFSGPFCE; listed as Homo sapiens)
50 µg/mL: MIC against M. catarrhalis (Moraxella catarrhalis; [3]) | MIC against E. cloacae (Enterobacter cloacae; [3]) | MIC against S. marcescens (Serratia marcescens; [3])
25 µg/mL: MIC against P. vulgaris (Proteus vulgaris; [3]) | MIC against A. hydrophila (Aeromonas hydrophila; [3])
12.5 µg/mL: MIC against K. pneumonia (Klebsiella pneumonia; [3]) | MIC against E. coli BL21 (E. coli BL21; [3]) | MIC against P. aeruginosa (Pseudomonas aeruginosa; [3]) | MIC (E. coli DH5α) | MIC against P. mirabilis (Proteus mirabilis; [3]) | MIC against C. diversus (Citrobacter diversus; [3])

PRT425 (DVDECAMGTHTCQPGFLCQNTKGSFYCQARQRCMDGFLQDPEGNCV; listed as Homo sapiens)
50 µg/mL: MIC (Pseudomonas aeruginosa; [1]) | MIC (Proteus mirabilis; [1]) | MIC (Citrobacter diversus; [1]) | MIC (Serratia marcescens; [1])
25 µg/mL: MIC (Klebsiella pneumonia; [1]) | MIC (E. coli BL21; [1]) | MIC (Aeromonas hydrophila; [1])
12.5 µg/mL: MIC (Moraxella catarrhalis; [1]) | MIC (Proteus vulgaris; [1]) | MIC (E. coli DH5α) | MIC (Enterobacter cloacae; [1])

PRT1098 (DIDNCQSHQCANGATCISHTNGYSCLCFGNFTGKFCR; listed as Homo sapiens)
50 µg/mL: MIC S. marcescens (Serratia marcescens; [1])
25 µg/mL: MIC M. catarrhalis (Moraxella catarrhalis; [1]) | MIC P. vulgaris (Proteus vulgaris; [1]) | MIC A. hydrophila (Aeromonas hydrophila; [1])
12.5 µg/mL: MIC K. pneumonia (Klebsiella pneumonia; [1]) | MIC E. coli BL21 (E. coli BL21; [1]) | MIC P. aeruginosa (Pseudomonas aeruginosa; [1]) | MIC (E. coli DH5α) | MIC E. cloacae (Enterobacter cloacae; [1]) | MIC P. mirabilis (Proteus mirabilis; [1]) | MIC C. diversus (Citrobacter diversus; [1])

PRT903 (DINECASDPCRNGANCTDCVDSYTCTCPAGFSGIHCE; listed as Homo sapiens)
50 µg/mL: MIC (E. coli BL21; 10 h cultivation at 37° C.) | MIC (Proteus vulgaris; 10 h cultivation at 37° C.) | MIC (Enterobacter cloacae; 10 h cultivation at 37° C.) | MIC (Citrobacter diversus; 10 h cultivation at 37° C.)
12.5 µg/mL: MIC (Moraxella catarrhalis; 10 h cultivation at 37° C.) | MIC (Pseudomonas aeruginosa; 10 h cultivation at 37° C.) | MIC (E. coli DH5α) | MIC (Aeromonas hydrophila; 10 h cultivation at 37° C.) | MIC (Serratia marcescens; 10 h cultivation at 37° C.)
25 µg/mL: MIC (Klebsiella pneumonia; 10 h cultivation at 37° C.) | MIC (Proteus mirabilis; 10 h cultivation at 37° C.)

PRT1325 (TEDNCNGTCHTSANCLTNSDGTASCKCAAGFQGNGTICT; listed as Homo sapiens)
25 µg/mL: MIC against P. aeruginosa (Pseudomonas aeruginosa; [3]) | MIC against E. cloacae (Enterobacter cloacae; [3]) | MIC against P. mirabilis (Proteus mirabilis; [3]) | MIC against A. hydrophila (Aeromonas hydrophila; [3]) | MIC against S. marcescens (Serratia marcescens; [3])
12.5 µg/mL: MIC against K. pneumonia (Klebsiella pneumonia; [3]) | MIC against E. coli BL21 (E. coli BL21; [3]) | MIC against M. catarrhalis (Moraxella catarrhalis; [3]) | MIC against P. vulgaris (Proteus vulgaris; [3]) | MIC (E. coli DH5α) | MIC against C. diversus (Citrobacter diversus; [3])

PRT1048 (YGKRCVPCKCANHSFCHPSNGTCYCLAGWTGPDCS; listed as Homo sapiens)
12.5 µg/mL: MIC (E. coli DH5α) | MIC E. cloacae (Enterobacter cloacae; [1]) | MIC P. mirabilis (Proteus mirabilis; [1]) | MIC S. marcescens (Serratia marcescens; [1])
25 µg/mL: MIC K. pneumonia (Klebsiella pneumonia; [1]) | MIC E. coli BL21 (E. coli BL21; [1]) | MIC M. catarrhalis (Moraxella catarrhalis; [1]) | MIC A. hydrophila (Aeromonas hydrophila; [1])
50 µg/mL: MIC P. aeruginosa (Pseudomonas aeruginosa; [1]) | MIC P. vulgaris (Proteus vulgaris; [1]) | MIC C. diversus (Citrobacter diversus; [1])

PRT97 (DSRGCARWCPQNSSCVNATACRCNPGFSSFSEIITTPTETCD; listed as Homo sapiens)
50 µg/mL: MIC (μg/mL) P. mirabilis (Proteus mirabilis; [3]) | MIC (μg/mL) C. diversus (Citrobacter diversus; [3]) | MIC (μg/mL) S. marcescens (Serratia marcescens; [3])
25 µg/mL: MIC (μg/mL) P. aeruginosa (Pseudomonas aeruginosa; [3]) | MIC (E. coli DH5α)
100 µg/mL: MIC (μg/mL) M. catarrhalis (Moraxella catarrhalis; [3])
12.5 µg/mL: MIC (μg/mL) K. pneumonia (Klebsiella pneumonia; [3]) | MIC (μg/mL) E. coli BL21 (E. coli BL21; [3]) | MIC (μg/mL) P. vulgaris (Proteus vulgaris; [3]) | MIC (μg/mL) E. cloacae (Enterobacter cloacae; [3]) | MIC (μg/mL) A. hydrophila (Aeromonas hydrophila; [3])
